These results are taken from ChEMBL document CHEMBL6078620, “Design and synthesis of visible light-activatable photocaged peroxides for optical control of ROS-mediated cellular signaling” (Bioorg Med Chem, 2024).

Calls of active or inactive are those of the source. The rule behind the calls is not given here.

Data set [1] can be described thus: Photophysical property of the compound assessed as fluorescence quantum yield by UV-Visible spectrophotometric analysis. It counts as physicochemical.
Data set [2] is described as follows: Chemical stability of compound in PBS buffer at pH 7.4 assessed as parent compound remaining measured after 60 mins by UHPLC analysis. It counts as physicochemical. The note with it: read-out: Stability.
In data set [3] the test system is HeLa. Put plainly: Cytotoxicity against human HeLa cells assessed as TBHP release by measuring fluorescence intensity at 50 uM incubated for 5 mins in presence of light irradiation at 375 nm by confocal fluorescence microscopic analysis. It counts as functional, cell-based.
Data set [4] concerns HeLa. Description: Cytotoxicity against human HeLa cells assessed as reduction in cell survival upto 50 uM by CCK-8 assay. It counts as functional. The note with it: up to 50 µM. In general terms: Formazan colour is commonly taken as a measure of viable cells.
For data set [5], the system named is HeLa. Put plainly: Cytotoxicity against human HeLa cells assessed as reduction in cell survival upto 50 uM in presence of light irradiation by CCK-8 assay. It counts as functional. The note with it: up to 50 µM.
The subject of data set [6] is HeLa. Description: Cytotoxicity against human HeLa cells at 25 uM by CCK-8 assay. It counts as functional, cell-based.
Data set [7] concerns HeLa. Put plainly: Cytotoxicity against human HeLa cells assessed as TBHP release by measuring fluorescence intensity at 10 uM incubated for 5 mins in presence of light irradiation at 375 to 455 nm by confocal fluorescence microscopic analysis. It counts as functional, cell-based.

On to `CC(C)(C)OOC(=O)OCc1cc(=O)oc2cc(O)c(Br)cc12`, for which the Activity in data set [1] is given as 0.13. Moreover, the remaining at 1 h in data set [2] was determined as 45%. In addition, in data set [3], the result was Active.

On to `CC(C)(C)OOC(=O)OCc1cc(=O)oc2c3c(c(Br)cc12)NCCC3`, for which the Activity in data set [1] is listed as 0.082; in data set [4], 63%; in data set [5] it was 46%. Moreover, the remaining at 1 h in data set [2] came out at 50%. Further, the outcome in data set [6] and in data set [7] was Active.

Turning to `CC(C)(C)OOC(=O)OCc1cc(=O)oc2c3c(c(Br)cc12)NCC3`, the Activity in data set [1] is 0.14. The remaining at 1 h in data set [2] came out at 68%.

Take `CC(=O)OC(=O)OCc1cc(=O)oc2cc(O)c(Br)cc12`: in data set [1], the Activity came to 0.04.
